Key:
NHEK keratinocytes = experiment: ROS production in NHEK keratinocytes subjected to UVA (H2DCFDA probe); assay type: cell-based, Human; settings: UVA 5 J/cm^2, extract at 0.29%, active at 0.3%, ascorbic acid at 300 μg/mL, 24 h pre-treatment, FIG. 2
Procedure: The Normal Human foreskin-derived Epidermal Keratinocytes isolated from 3 Caucasian donors (NHEKs, Lonza, 00192906) were grown in Epilife medium (Fisher Scientific, M-EPI-500-A) supplemented with Human Keratinocyte Growth Supplement (HKGS, Fisher Scientific, S-001-5). The cells were maintained in a humidified incubator at 37° C. with a 5% CO2 atmosphere. The detection and quantification of the intracellular ROS amounts from 2D NHEK keratinocytes or 3D RHE were performed using the H2DCFDA (2′-7′dichlorodihydrofluorescein diacetate; Fisher Scientific; D399) probe. After its diffusion into the live cells, the probe is deacetylated by intracellular esterases to a non-fluorescent compound. This compound can be oxidized by ROS and converted into the highly fluorescent DCF (2′-7′ dichlorofluorescein). The production of ROS by cells can be therefore measured through the level of fluorescence emitted by the oxidized dye. NHEK keratinocytes in 24-well plates were pre-treated in the culture medium during 24 h by the compounds at 1 concentration or with the antioxidant reference, ascorbic acid at 300 μg/mL. […] Following the challenge, the fluorescence was measured (excitation: 475 nm; emission: 500-550 nm) with a fluorescence microplate reader (Glomax Explorer, Promega). […]

pro-MMP1 = experiment: Pro-MMP1 release from NHDFs fibroblasts (ELISA); assay type: cell-based, Human; settings: NHDFs treated 72 h; B 0.0079%, E 0.029%, A 0.03%; TGF-β1 20 ng/ml; TNFα 20 ng/mL + IL1β 2.5 ng/ml; vs untreated control; FIG. 3
Procedure: The Normal Human foreskin-derived Dermal Fibroblasts (NHDFs; ATCC, CRL-2522) cells were grown in Dulbecco's Modified Eagle Medium (DMEM, Gibco/Life Technologies, 31885) supplemented with 10% of Foetal Bovine Serum (FBS, Gibco/Life Technologies, 10270). The cells were maintained in a humidified incubator at 37° C. with a 5% CO2 atmosphere.
NHDF fibroblasts were cultivated on 24-well plates in complete culture medium (containing 10% FBS) 24 h before the treatment with the compounds. Cells were then treated for 72 h with the test compounds in culture medium, in absence of FBS. In parallel, reference treatments were applied according to the same method (TGF-β at 20 ng/ml; combination of TNFα at 20 ng/ml and IL1β at 2.5 ng/ml). All the treatments were performed in triplicate of culture (n=3).
At the end of the 72 h of treatments, all the supernatants were collected, aliquoted and stored at −20° C. until further use in specific ELISA assays. Through these assays, the quantifications of the extracellular releases of pro-MMP1 (R&D systems, DMP100) produced by NHDFs fibroblasts were assessed according to the supplier's specifications.

Row | Compound | ROS production (NHEK keratinocytes) | pro-MMP1 release in supernatant (pro-MMP1)
1 | O=C1O[C@H]([C@@H](O)CO)C(O)=C1O [ascorbic acid] | partially suppressed this effect | –
2 | TGF-β1: negative reference at 20 ng/ml in the pro-MMP1 assay | – | reduced

From patent US20260191764A1, “COMBINATION OF A LACTOBACILLUS STRAIN AND A GRAPE EXTRACT FOR USE AS AN ANTI-AGEING AGENT” (CEPAGES, priority 2022, published 2026)
